Test results reported in ChEMBL document CHEMBL3044728, “Synthesis and biological activity of new (E)-alpha-(Methoxyimino)benzeneacetate derivatives containing a substituted pyrazole ring” (2010).

Legend:
Type in all cases: functional
[1] = test system: Phytophthora infestans; experiment: Antifungal activity against Phytophthora infestans assessed as inhibition at 0.92 mg/L relative to control
[2] = test system: Pyricularia oryzae; experiment: Antifungal activity against Magnaporthe oryzae assessed as inhibition at 25 mg/L relative to control
[3] = test system: Pseudoperonospora cubensis; experiment: Antifungal activity against Pseudoperonospora cubensis assessed as inhibition at 400 mg/L relative to control
[4] = test system: Pyricularia oryzae; experiment: Antifungal activity against Magnaporthe oryzae assessed as inhibition at 0.92 mg/L relative to control
[5] = test system: Phytophthora infestans; experiment: Antifungal activity against Phytophthora infestans assessed as inhibition at 25 mg/L relative to control
[6] = test system: Blumeria graminis; experiment: Antifungal activity against Blumeria graminis assessed as inhibition at 400 mg/L relative to control
[7] = test system: Blumeria graminis; experiment: Antifungal activity against Blumeria graminis assessed as inhibition at 6.25 mg/L relative to control
[8] = test system: Pseudoperonospora cubensis; experiment: Antifungal activity against Pseudoperonospora cubensis assessed as inhibition at 25 mg/L relative to control
[9] = test system: Blumeria graminis; experiment: Antifungal activity against Blumeria graminis assessed as inhibition at 1.56 mg/L relative to control
[10] = test system: Pseudoperonospora cubensis; experiment: Antifungal activity against Pseudoperonospora cubensis assessed as inhibition at 6.25 mg/L relative to control

Structure (SMILES): CCOc1ccc(-c2nn(C)c(OCc3ccccc3/C(=N\OC)C(=O)NC)c2C)cc1
- inhibition at 0.92 µg/mL [1]: 50%
- inhibition at 25 µg/mL [2]: 100%
- inhibition at 400 µg/mL [3]: 98%
- inhibition at 0.92 µg/mL [4]: 100%
- inhibition at 25 µg/mL [5]: 100%
- inhibition at 400 µg/mL [6]: 100%
- inhibition at 6.25 µg/mL [7]: 100%
- inhibition at 25 µg/mL [8]: 20%
- inhibition at 1.56 µg/mL [9]: 70%

Structure (SMILES): CNC(=O)/C(=N/OC)c1ccccc1COc1c(C)c(-c2ccc(C)cc2)nn1C
- inhibition at 0.92 µg/mL [1]: 100%
- inhibition at 25 µg/mL [2]: 0%
- inhibition at 400 µg/mL [3]: 65%
- inhibition at 25 µg/mL [5]: 100%
- inhibition at 400 µg/mL [6]: 100%
- inhibition at 6.25 µg/mL [7]: 95%
- inhibition at 1.56 µg/mL [9]: 40%

Structure (SMILES): CNC(=O)/C(=N/OC)c1ccccc1COc1cc(-c2ccccc2Cl)nn1C
- inhibition at 0.92 µg/mL [1]: 0%
- inhibition at 25 µg/mL [2]: 0%
- inhibition at 400 µg/mL [3]: 90%
- inhibition at 25 µg/mL [5]: 100%
- inhibition at 400 µg/mL [6]: 100%
- inhibition at 6.25 µg/mL [7]: 90%
- inhibition at 25 µg/mL [8]: 40%
- inhibition at 1.56 µg/mL [9]: 55%

Structure (SMILES): CO/N=C(/C(=O)OC)c1ccccc1COc1cc(-c2ccc(OC)cc2)nn1C
- inhibition at 0.92 µg/mL [1]: 0%
- inhibition at 25 µg/mL [2]: 0%
- inhibition at 400 µg/mL [3]: 98%
- inhibition at 25 µg/mL [5]: 100%
- inhibition at 400 µg/mL [6]: 100%
- inhibition at 6.25 µg/mL [7]: 10%
- inhibition at 25 µg/mL [8]: 50%

Structure (SMILES): CO/N=C(/C(=O)OC)c1ccccc1COc1cc(-c2ccc(C(C)(C)C)cc2)nn1C
- inhibition at 0.92 µg/mL [1]: 60%
- inhibition at 25 µg/mL [2]: 100%
- inhibition at 400 µg/mL [3]: 95%
- inhibition at 0.92 µg/mL [4]: 80%
- inhibition at 25 µg/mL [5]: 100%
- inhibition at 400 µg/mL [6]: 0%
- inhibition at 25 µg/mL [8]: 0%

Structure (SMILES): CO/N=C(/C(=O)OC)c1ccccc1COc1c(C)c(-c2ccc(OCC(F)(F)F)cc2)nn1C
- inhibition at 25 µg/mL [2]: 100%
- inhibition at 400 µg/mL [3]: 80%
- inhibition at 0.92 µg/mL [4]: 80%
- inhibition at 25 µg/mL [5]: 50%
- inhibition at 400 µg/mL [6]: 100%
- inhibition at 6.25 µg/mL [7]: 70%
- inhibition at 25 µg/mL [8]: 0%
- inhibition at 1.56 µg/mL [9]: 15%

Structure (SMILES): CO/N=C(/C(=O)OC)c1ccccc1COc1c(C)c(-c2ccc(Cl)cc2)nn1C
- inhibition at 0.92 µg/mL [1]: 100%
- inhibition at 25 µg/mL [2]: 50%
- inhibition at 400 µg/mL [3]: 100%
- inhibition at 25 µg/mL [5]: 100%
- inhibition at 400 µg/mL [6]: 100%
- inhibition at 6.25 µg/mL [7]: 100%
- inhibition at 25 µg/mL [8]: 100%
- inhibition at 1.56 µg/mL [9]: 98%
- inhibition at 6.25 µg/mL [10]: 100%

Structure (SMILES): CO/N=C(/C(=O)OC)c1ccccc1COc1c(C)c(-c2ccc(OC)cc2)nn1C
- inhibition at 0.92 µg/mL [1]: 50%
- inhibition at 25 µg/mL [2]: 100%
- inhibition at 400 µg/mL [3]: 100%
- inhibition at 0.92 µg/mL [4]: 80%
- inhibition at 25 µg/mL [5]: 100%
- inhibition at 400 µg/mL [6]: 100%
- inhibition at 6.25 µg/mL [7]: 85%
- inhibition at 25 µg/mL [8]: 55%
- inhibition at 1.56 µg/mL [9]: 30%
- inhibition at 6.25 µg/mL [10]: 15%

Structure (SMILES): CNC(=O)/C(=N/OC)c1ccccc1COc1c(C)c(-c2ccc(Cl)cc2)nn1C
- inhibition at 25 µg/mL [2]: 0%
- inhibition at 400 µg/mL [3]: 80%
- inhibition at 25 µg/mL [5]: 100%
- inhibition at 400 µg/mL [6]: 100%
- inhibition at 6.25 µg/mL [7]: 100%
- inhibition at 25 µg/mL [8]: 40%
- inhibition at 1.56 µg/mL [9]: 85%

Structure (SMILES): CO/N=C(/C(=O)OC)c1ccccc1COc1cc(-c2ccccc2Cl)nn1C
- inhibition at 0.92 µg/mL [1]: 0%
- inhibition at 25 µg/mL [2]: 100%
- inhibition at 400 µg/mL [3]: 80%
- inhibition at 0.92 µg/mL [4]: 0%
- inhibition at 25 µg/mL [5]: 100%
- inhibition at 400 µg/mL [6]: 100%
- inhibition at 6.25 µg/mL [7]: 75%
- inhibition at 25 µg/mL [8]: 30%
- inhibition at 1.56 µg/mL [9]: 45%

Structure (SMILES): CNC(=O)/C(=N/OC)c1ccccc1COc1cc(-c2ccccc2)nn1C
- inhibition at 25 µg/mL [2]: 0%
- inhibition at 400 µg/mL [3]: 100%
- inhibition at 400 µg/mL [6]: 50%
- inhibition at 25 µg/mL [8]: 100%
- inhibition at 6.25 µg/mL [10]: 70%

Structure (SMILES): CNC(=O)/C(=N/OC)c1ccccc1COc1c(C)c(-c2ccc(C)c(C)c2)nn1C
- inhibition at 0.92 µg/mL [1]: 100%
- inhibition at 25 µg/mL [2]: 100%
- inhibition at 400 µg/mL [3]: 100%
- inhibition at 0.92 µg/mL [4]: 80%
- inhibition at 25 µg/mL [5]: 100%
- inhibition at 400 µg/mL [6]: 100%
- inhibition at 6.25 µg/mL [7]: 100%
- inhibition at 25 µg/mL [8]: 100%
- inhibition at 1.56 µg/mL [9]: 55%
- inhibition at 6.25 µg/mL [10]: 40%

Structure (SMILES): CCc1ccc(-c2nn(C)c(OCc3ccccc3/C(=N\OC)C(=O)OC)c2C)cc1
- inhibition at 0.92 µg/mL [1]: 80%
- inhibition at 25 µg/mL [2]: 50%
- inhibition at 400 µg/mL [3]: 98%
- inhibition at 25 µg/mL [5]: 100%
- inhibition at 400 µg/mL [6]: 100%
- inhibition at 6.25 µg/mL [7]: 100%
- inhibition at 25 µg/mL [8]: 70%
- inhibition at 1.56 µg/mL [9]: 100%
- inhibition at 6.25 µg/mL [10]: 50%

Structure (SMILES): CNC(=O)/C(=N/OC)c1ccccc1COc1cc(-c2ccc(OC)cc2)nn1C
- inhibition at 0.92 µg/mL [1]: 0%
- inhibition at 25 µg/mL [2]: 100%
- inhibition at 400 µg/mL [3]: 98%
- inhibition at 0.92 µg/mL [4]: 80%
- inhibition at 25 µg/mL [5]: 100%
- inhibition at 400 µg/mL [6]: 100%
- inhibition at 6.25 µg/mL [7]: 0%
- inhibition at 25 µg/mL [8]: 30%

Structure (SMILES): CNC(=O)/C(=N/OC)c1ccccc1COc1c(C)c(-c2ccc(C(C)(C)C)cc2)nn1C
- inhibition at 0.92 µg/mL [1]: 40%
- inhibition at 25 µg/mL [2]: 100%
- inhibition at 400 µg/mL [3]: 95%
- inhibition at 0.92 µg/mL [4]: 100%
- inhibition at 25 µg/mL [5]: 100%
- inhibition at 400 µg/mL [6]: 100%
- inhibition at 6.25 µg/mL [7]: 0%
- inhibition at 25 µg/mL [8]: 20%
- inhibition at 1.56 µg/mL [9]: 0%

Structure (SMILES): CO/N=C(/C(=O)OC)c1ccccc1COc1ccccc1C [KRESOXIM-METHYL]
- inhibition at 25 µg/mL [2]: 100%
- inhibition at 25 µg/mL [5]: 100%
- inhibition at 400 µg/mL [6]: 100%
- inhibition at 6.25 µg/mL [7]: 100%
- inhibition at 25 µg/mL [8]: 35%
- inhibition at 1.56 µg/mL [9]: 100%
- inhibition at 6.25 µg/mL [10]: 0%

Structure (SMILES): CCc1ccc(-c2nn(C)c(OCc3ccccc3/C(=N\OC)C(=O)NC)c2C)cc1
- inhibition at 0.92 µg/mL [1]: 80%
- inhibition at 25 µg/mL [2]: 100%
- inhibition at 400 µg/mL [3]: 50%
- inhibition at 0.92 µg/mL [4]: 0%
- inhibition at 25 µg/mL [5]: 100%
- inhibition at 400 µg/mL [6]: 100%
- inhibition at 6.25 µg/mL [7]: 100%
- inhibition at 1.56 µg/mL [9]: 90%

Structure (SMILES): CO/C=C(/C(=O)OC)c1ccccc1Oc1cc(Oc2ccccc2C#N)ncn1 [AZOXYSTROBIN]
- inhibition at 25 µg/mL [2]: 100%
- inhibition at 400 µg/mL [3]: 100%
- inhibition at 400 µg/mL [6]: 100%
- inhibition at 6.25 µg/mL [7]: 100%
- inhibition at 25 µg/mL [8]: 100%
- inhibition at 1.56 µg/mL [9]: 60%
- inhibition at 6.25 µg/mL [10]: 95%

Structure (SMILES): CNC(=O)/C(=N/OC)c1ccccc1COc1cc(-c2ccc(C(C)(C)C)cc2)nn1C
- inhibition at 0.92 µg/mL [1]: 50%
- inhibition at 25 µg/mL [2]: 100%
- inhibition at 400 µg/mL [3]: 80%
- inhibition at 0.92 µg/mL [4]: 50%
- inhibition at 25 µg/mL [5]: 100%
- inhibition at 400 µg/mL [6]: 0%
- inhibition at 25 µg/mL [8]: 0%

Structure (SMILES): CO/N=C(/C(=O)OC)c1ccccc1COc1c(C)c(-c2ccc(C)cc2)nn1C
- inhibition at 0.92 µg/mL [1]: 100%
- inhibition at 25 µg/mL [2]: 50%
- inhibition at 400 µg/mL [3]: 95%
- inhibition at 25 µg/mL [5]: 100%
- inhibition at 400 µg/mL [6]: 100%
- inhibition at 6.25 µg/mL [7]: 100%
- inhibition at 25 µg/mL [8]: 60%
- inhibition at 1.56 µg/mL [9]: 100%

Structure (SMILES): CO/N=C(/C(=O)OC)c1ccccc1COc1cc(-c2ccccc2OC)nn1C
- inhibition at 25 µg/mL [2]: 100%
- inhibition at 400 µg/mL [3]: 50%
- inhibition at 0.92 µg/mL [4]: 50%
- inhibition at 25 µg/mL [5]: 0%
- inhibition at 400 µg/mL [6]: 100%
- inhibition at 6.25 µg/mL [7]: 90%
- inhibition at 1.56 µg/mL [9]: 40%

Structure (SMILES): CO/N=C(/C(=O)OC)c1ccccc1COc1c(C)c(-c2ccc(C(C)(C)C)cc2)nn1C
- inhibition at 25 µg/mL [2]: 50%
- inhibition at 400 µg/mL [3]: 40%
- inhibition at 25 µg/mL [5]: 0%
- inhibition at 400 µg/mL [6]: 70%
